One assay addresses T1, SMARCA2-HiBiT (Homo sapiens, UniProt P51531).
T1 construct: SMARCA2-HiBiT knock-in Hela monoclonal cell (CS302366); host or cells: HeLa monoclonal knock-in line (CRISPR HiBiT knock-in at the endogenous locus, heterozygous)
The assay is described as follows: SMARCA2 HiBiT degradation assay in HeLa cells. Type of assay: cell-based. Conditions: 18 hours incubation; for DC50: read-out: HeLa_HiBit-SM2 DC50; for Dmax: HeLa, read-out: HeLa-HiBit-SM2 Dmax (%). In outline:
(§1)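 HeLa monoclonal lines with heterozygous HiBiT knock-in were seeded at 2500 cells/well in EMEM with 10% FBS and treated with compound for 18 h at 37 °C. Remaining tagged protein was measured by Nano-Glo HiBiT lytic luminescence after 30–60 min at RT, and values came from curve fitting.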
(In general: With HiBiT, luminescence reflects the tagged protein that the partner subunit can reach.)

Another assay concerns the target T2, SMARCA4-HiBiT (Homo sapiens, UniProt P51532).
T2 construct: SMARCA4-HiBiT knock-in Hela monoclonal cell (CS3023226); host or cells: HeLa monoclonal knock-in line (CRISPR HiBiT knock-in at the endogenous locus, heterozygous)
The assay is described as follows: SMARCA4 HiBiT degradation assay in HeLa cells. Particulars: 18 hours incubation; for DC50: read-out: HeLa-HiBit-SM4 DC50; for Dmax: HeLa, read-out: HeLa-HiBit-SM4 Dmax (%). Type of assay: cell-based. In outline:
as §1

Structures are written as SMILES. Bounds are passed on as bounds.

By DC50 is commonly meant the concentration at which degradation of the target reaches its halfway point. Usually Dmax stands for the greatest extent of degradation seen.

T2 sequence (P51532 whole entry): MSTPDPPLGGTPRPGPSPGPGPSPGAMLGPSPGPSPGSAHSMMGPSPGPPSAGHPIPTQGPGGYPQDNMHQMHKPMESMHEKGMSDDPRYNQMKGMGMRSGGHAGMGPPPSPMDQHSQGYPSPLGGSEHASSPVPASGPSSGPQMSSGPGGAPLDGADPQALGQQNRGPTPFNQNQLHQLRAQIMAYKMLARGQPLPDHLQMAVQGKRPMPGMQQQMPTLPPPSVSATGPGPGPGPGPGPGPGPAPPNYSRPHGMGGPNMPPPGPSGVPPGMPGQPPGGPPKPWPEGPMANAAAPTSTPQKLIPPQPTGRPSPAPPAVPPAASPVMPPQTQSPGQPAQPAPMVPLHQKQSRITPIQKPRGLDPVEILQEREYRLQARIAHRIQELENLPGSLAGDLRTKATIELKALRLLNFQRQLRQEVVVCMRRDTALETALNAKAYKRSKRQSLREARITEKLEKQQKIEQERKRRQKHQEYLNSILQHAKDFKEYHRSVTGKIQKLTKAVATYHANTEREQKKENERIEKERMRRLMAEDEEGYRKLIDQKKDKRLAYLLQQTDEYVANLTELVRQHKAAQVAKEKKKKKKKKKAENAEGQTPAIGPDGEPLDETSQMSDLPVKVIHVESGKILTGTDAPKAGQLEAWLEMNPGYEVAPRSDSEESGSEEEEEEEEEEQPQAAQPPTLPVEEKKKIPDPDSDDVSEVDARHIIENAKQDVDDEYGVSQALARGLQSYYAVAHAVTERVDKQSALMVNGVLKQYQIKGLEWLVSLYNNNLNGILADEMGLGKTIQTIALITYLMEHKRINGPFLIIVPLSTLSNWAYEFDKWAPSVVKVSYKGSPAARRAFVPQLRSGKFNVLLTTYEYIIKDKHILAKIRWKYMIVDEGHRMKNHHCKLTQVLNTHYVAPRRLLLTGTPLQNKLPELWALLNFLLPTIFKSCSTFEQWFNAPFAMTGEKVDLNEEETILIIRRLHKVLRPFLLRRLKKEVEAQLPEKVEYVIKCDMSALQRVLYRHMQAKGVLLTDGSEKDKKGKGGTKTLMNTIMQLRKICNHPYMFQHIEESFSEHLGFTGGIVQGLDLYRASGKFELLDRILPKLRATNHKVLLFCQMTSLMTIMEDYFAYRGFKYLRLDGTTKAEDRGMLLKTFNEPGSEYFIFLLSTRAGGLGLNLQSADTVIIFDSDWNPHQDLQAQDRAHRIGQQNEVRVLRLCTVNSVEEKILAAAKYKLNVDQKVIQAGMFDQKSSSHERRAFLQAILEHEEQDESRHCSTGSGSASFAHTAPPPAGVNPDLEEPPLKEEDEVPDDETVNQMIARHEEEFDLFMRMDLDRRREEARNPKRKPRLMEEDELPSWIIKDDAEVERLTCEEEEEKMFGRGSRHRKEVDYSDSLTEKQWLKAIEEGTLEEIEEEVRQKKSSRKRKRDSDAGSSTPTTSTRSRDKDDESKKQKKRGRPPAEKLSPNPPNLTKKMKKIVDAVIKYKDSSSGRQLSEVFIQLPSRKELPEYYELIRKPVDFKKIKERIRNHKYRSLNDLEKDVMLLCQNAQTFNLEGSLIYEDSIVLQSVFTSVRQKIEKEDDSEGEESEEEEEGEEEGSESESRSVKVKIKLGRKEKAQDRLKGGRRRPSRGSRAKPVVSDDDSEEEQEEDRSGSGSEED
T1 sequence (P51531 whole entry): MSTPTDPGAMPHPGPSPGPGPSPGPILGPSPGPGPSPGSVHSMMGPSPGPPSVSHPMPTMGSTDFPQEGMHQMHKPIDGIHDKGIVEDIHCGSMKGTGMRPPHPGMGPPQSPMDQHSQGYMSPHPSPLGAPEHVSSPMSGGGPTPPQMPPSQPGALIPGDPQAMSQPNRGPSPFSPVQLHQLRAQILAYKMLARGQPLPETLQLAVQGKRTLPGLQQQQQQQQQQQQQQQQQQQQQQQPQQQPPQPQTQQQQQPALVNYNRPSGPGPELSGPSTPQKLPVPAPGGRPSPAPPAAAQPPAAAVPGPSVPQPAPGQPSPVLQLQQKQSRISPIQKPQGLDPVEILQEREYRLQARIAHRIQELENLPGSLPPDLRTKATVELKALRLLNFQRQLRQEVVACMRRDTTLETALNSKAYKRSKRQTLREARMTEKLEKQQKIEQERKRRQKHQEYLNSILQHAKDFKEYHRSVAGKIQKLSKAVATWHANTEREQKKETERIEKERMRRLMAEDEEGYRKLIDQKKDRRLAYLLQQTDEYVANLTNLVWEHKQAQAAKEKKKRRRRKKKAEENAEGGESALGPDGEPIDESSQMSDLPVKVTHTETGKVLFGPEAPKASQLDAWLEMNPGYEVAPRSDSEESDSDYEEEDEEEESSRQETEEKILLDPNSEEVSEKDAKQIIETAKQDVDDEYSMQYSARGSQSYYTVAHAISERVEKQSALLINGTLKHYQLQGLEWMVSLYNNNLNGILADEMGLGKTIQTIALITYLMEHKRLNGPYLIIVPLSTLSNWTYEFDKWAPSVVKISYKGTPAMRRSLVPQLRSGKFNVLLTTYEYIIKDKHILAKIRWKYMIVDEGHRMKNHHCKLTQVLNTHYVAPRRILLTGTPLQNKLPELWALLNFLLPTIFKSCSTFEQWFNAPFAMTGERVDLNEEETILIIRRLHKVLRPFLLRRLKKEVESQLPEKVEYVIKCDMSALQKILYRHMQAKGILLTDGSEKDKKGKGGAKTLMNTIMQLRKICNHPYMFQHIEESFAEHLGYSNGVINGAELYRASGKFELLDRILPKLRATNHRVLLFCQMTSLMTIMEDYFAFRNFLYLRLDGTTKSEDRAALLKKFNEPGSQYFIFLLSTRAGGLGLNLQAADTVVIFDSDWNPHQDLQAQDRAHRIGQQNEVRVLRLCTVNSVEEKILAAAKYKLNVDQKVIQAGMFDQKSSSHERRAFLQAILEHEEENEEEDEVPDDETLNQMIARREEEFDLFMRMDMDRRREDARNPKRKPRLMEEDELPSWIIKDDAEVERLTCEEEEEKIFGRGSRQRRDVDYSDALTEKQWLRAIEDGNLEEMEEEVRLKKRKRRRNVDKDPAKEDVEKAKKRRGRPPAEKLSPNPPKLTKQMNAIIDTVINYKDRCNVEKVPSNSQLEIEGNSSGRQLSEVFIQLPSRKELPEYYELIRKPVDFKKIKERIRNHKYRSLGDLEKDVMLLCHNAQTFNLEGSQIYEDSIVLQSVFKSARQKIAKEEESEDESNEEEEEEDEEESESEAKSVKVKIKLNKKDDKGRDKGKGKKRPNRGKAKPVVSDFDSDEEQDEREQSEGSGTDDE

As to `O=C1CCC(N2C(=O)c3cc(F)c(N4CCC(CN5CC6CCC(C5)C6CN5CCN6c7cc(-c8ccccc8O)nnc7NC[C@H]6C5)CC4)cc3C2=O)C(=O)N1` (stereo partly drawn) [Example 169, 2-(2,6-dioxopiperidin-3-yl)-5-fluoro-6-[4-[[8-[[(10S)-4-(2-hydroxyphenyl)-1,5,6,8,12-pentazatricyclo[8.4.0.02,7]tetradeca-2,4,6-trien-12-yl]methyl]-3-azabicyclo[3.2.1]octan-3-yl]methyl]piperidin-1-yl]isoindole-1,3-dione], on SMARCA2-HiBiT, the 50% degradation concentration (DC50) was < 10 nM and the Dmax was in the range of 75 to 85%. Further, on SMARCA4-HiBiT, the DC50 is 10 to 100 nM and the Dmax was in the range of 75 to 85%.
Take `CC1CN(c2ccc3c(c2)C(=O)N(C2CCC(=O)NC2=O)C3=O)CCC1CN1CCC(CN2CCN3c4cc(-c5ccccc5O)nnc4NC[C@H]3C2)CC1` (stereo partly drawn) [Example 170, 2-(2,6-dioxopiperidin-3-yl)-5-[4-[[4-[[(10S)-4-(2-hydroxyphenyl)-1,5,6,8,12-pentazatricyclo[8.4.0.02,7]tetradeca-2(7),3,5-trien-12-yl]methyl]piperidin-1-yl]methyl]-3-methylpiperidin-1-yl]isoindole-1,3-dione]: the DC50 on SMARCA2-HiBiT and at SMARCA4-HiBiT was < 10 nM in each case. Moreover, the Dmax at SMARCA2-HiBiT and on SMARCA4-HiBiT was > 85% in each case.
For the molecule `O=C1CCC(N2C(=O)c3ccc(N4CCC(CN5CCC6(CN7CCN8c9cc(-c%10ccccc%10O)nnc9NC[C@H]8C7)CC6C5)CC4)cc3C2=O)C(=O)N1` (stereo partly drawn) [Example 171, 2-(2,6-dioxopiperidin-3-yl)-5-[4-[[6-[[(10S)-4-(2-hydroxyphenyl)-1,5,6,8,12-pentazatricyclo[8.4.0.02,7]tetradeca-2,4,6-trien-12-yl]methyl]-3-azabicyclo[4.1.0]heptan-3-yl]methyl]piperidin-1-yl]isoindole-1,3-dione], on SMARCA2-HiBiT, the DC50 is < 10 nM and the Dmax is > 85%. Besides, at SMARCA4-HiBiT, the DC50 is < 10 nM and the Dmax was > 85%.
Regarding `O=C1CCC(N2C(=O)c3ccc(N4CCC(CN5CC6CC6(CN6CCN7c8cc(-c9ccccc9O)nnc8NC[C@H]7C6)C5)CC4)cc3C2=O)C(=O)N1` (stereo partly drawn) [Example 172, 2-(2,6-dioxopiperidin-3-yl)-5-[4-[[1-[[(10S)-4-(2-hydroxyphenyl)-1,5,6,8,12-pentazatricyclo[8.4.0.02,7]tetradeca-2,4,6-trien-12-yl]methyl]-3-azabicyclo[3.1.0]hexan-3-yl]methyl]piperidin-1-yl]isoindole-1,3-dione], at SMARCA2-HiBiT, the DC50 was < 10 nM and the Dmax was 75 to 85%. Besides, on SMARCA4-HiBiT, the DC50 is < 10 nM and the Dmax was in the range of 50 to 75%.
For `O=C1CCC(N2C(=O)c3cc(F)c(N4CCC(CN5C[C@@H]6[C@H](C5)[C@H]6CN5CCN6c7cc(-c8ccccc8O)nnc7NC[C@H]6C5)CC4)cc3C2=O)C(=O)N1` (stereo partly drawn) [Example 173, 2-(2,6-dioxopiperidin-3-yl)-5-fluoro-6-[4-[[(1S,5R)-6-[[(10S)-4-(2-hydroxyphenyl)-1,5,6,8,12-pentazatricyclo[8.4.0.02,7]tetradeca-2,4,6-trien-12-yl]methyl]-3-azabicyclo[3.1.0]hexan-3-yl]methyl]piperidin-1-yl]isoindole-1,3-dione], on SMARCA2-HiBiT, the DC50 is < 10 nM and the Dmax lay within 75 to 85%. In addition, on SMARCA4-HiBiT, the DC50 was in the range of 10 to 100 nM and the Dmax was in the range of 50 to 75%.
For the molecule `C[C@@H]1C[C@H](CN2CCC(CN3CCN4c5cc(-c6ccccc6O)nnc5NC[C@H]4C3)CC2)CCN1c1cc2c(cc1F)C(=O)N(C1CCC(=O)NC1=O)C2=O` (stereo partly drawn) [Example 174, 2-(2,6-dioxopiperidin-3-yl)-5-fluoro-6-[(2R,4R)-4-[[4-[[(10S)-4-(2-hydroxyphenyl)-1,5,6,8,12-pentazatricyclo[8.4.0.02,7]tetradeca-2,4,6-trien-12-yl]methyl]piperidin-1-yl]methyl]-2-methylpiperidin-1-yl] isoindole-1,3-dione], the DC50 at SMARCA2-HiBiT and on SMARCA4-HiBiT was < 10 nM throughout. The Dmax on SMARCA2-HiBiT and on SMARCA4-HiBiT was > 85% throughout.

The values are drawn from patent US12448389B2, “BRM targeting compounds and associated methods of use” (Prelude Therapeutics Incorporated, priority 2020, dated 2025).
